The test system of one assay is Aβ. In words: Oral tolfenamic acid in mice, Aβ analysis by ELISA in brain. The format is in vivo, mice (C57BL/6). Particulars: oral gavage 10 or 50 mg/Kg in corn oil on alternate days, both doses combined (FIG. 6C). Here is the method:
The Oral Administration of Tolfenamic acid to mice lowers SP1, APP, and Aβ levels in the brain (See FIG. 6). Mice were dosed on alternate days by oral gavage with 10 or 50 mg/Kg of tolfenamic acid in corn oil or vehicle alone. Tolfenamic acid (TFA) lowered APP levels by about 50% and Aβ by about 20%. […] FIG. 6A is a representative Western blot of SP1. FIG. 6B is a Western blot analysis of APP expressed as a ratio of a housekeeping gene, FIG. 6C is Aβ analysis by ELISA. Each bar represents the mean of data obtained from 6-9 animals. Data from both doses was combined after statistical analysis. Values marked with an ‘*’ are statistically significant, p<0.0.5. Animal Exposure: Adult mice (C57BL/6) were obtained from Jackson labs (Maine). They were divided into 2 groups viz., Con (C), drug treated (D). The drug, toelfenamic acid was dissolved in corn oil and administered at various concentrations from 10 mg/Kg to 100 mg/Kg in corn oil by oral gavage. Control mice were dosed with corn oil only. Treatment was given on alternate days for one month. […] ELISA Assays: Aβ-40 and Aβ-42 levels were measured using a combination of monoclonal antibody (mAb) 6E10 (specific to an epitope present on 1-16 amino acid residues of Aβ) and R162, and R164 respectively in a double-antibody sandwich ELISA (Mehta et al., 1998; Morishima-Kawashima et al., 2000; Basha et al., 2005).

Another assay relates to Sp1, Sp3 and Sp4. Particulars: pancreatic cancer cells and tumors; background statement; cited from earlier work.
In another assay the target is T1, SP1 (Mus musculus, UniProt O89090).
T1 construct: various brain regions were isolated and stored at −70° C; from tissue; host or cells: brain of adult C57BL/6 mice
T1 sequence (O89090 whole entry): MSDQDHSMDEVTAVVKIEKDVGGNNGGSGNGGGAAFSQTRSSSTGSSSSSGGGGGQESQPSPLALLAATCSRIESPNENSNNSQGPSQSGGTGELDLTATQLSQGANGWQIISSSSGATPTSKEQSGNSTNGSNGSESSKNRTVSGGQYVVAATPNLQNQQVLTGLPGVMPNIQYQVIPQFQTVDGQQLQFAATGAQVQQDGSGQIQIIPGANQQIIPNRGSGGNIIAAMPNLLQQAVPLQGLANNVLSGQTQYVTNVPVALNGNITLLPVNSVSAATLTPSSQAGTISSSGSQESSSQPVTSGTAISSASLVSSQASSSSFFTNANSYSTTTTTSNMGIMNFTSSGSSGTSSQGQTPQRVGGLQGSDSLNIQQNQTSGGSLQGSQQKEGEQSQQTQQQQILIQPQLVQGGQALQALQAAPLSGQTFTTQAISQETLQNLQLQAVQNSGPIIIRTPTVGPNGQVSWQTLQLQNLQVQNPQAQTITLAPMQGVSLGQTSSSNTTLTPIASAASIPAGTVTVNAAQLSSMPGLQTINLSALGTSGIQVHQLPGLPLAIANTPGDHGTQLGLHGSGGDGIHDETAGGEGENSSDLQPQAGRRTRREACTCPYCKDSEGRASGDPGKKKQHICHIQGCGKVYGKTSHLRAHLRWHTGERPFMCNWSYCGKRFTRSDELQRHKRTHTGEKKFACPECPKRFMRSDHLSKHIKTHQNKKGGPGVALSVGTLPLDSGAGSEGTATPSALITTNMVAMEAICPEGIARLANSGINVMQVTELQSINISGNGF
In words: Oral tolfenamic acid in mice, Western blot of SP1 in brain. It counts as in vivo, mice (C57BL/6). To be noted: oral gavage 10 or 50 mg/Kg in corn oil on alternate days, Western blot (FIG. 6A). Here is the method: The Oral Administration of Tolfenamic acid to mice lowers SP1, APP, and Aβ levels in the brain (See FIG. 6). Mice were dosed on alternate days by oral gavage with 10 or 50 mg/Kg of tolfenamic acid in corn oil or vehicle alone. Tolfenamic acid (TFA) lowered APP levels by about 50% and Aβ by about 20%. […] FIG. 6A is a representative Western blot of SP1. FIG. 6B is a Western blot analysis of APP expressed as a ratio of a housekeeping gene, FIG. 6C is Aβ analysis by ELISA. Each bar represents the mean of data obtained from 6-9 animals. Data from both doses was combined after statistical analysis. Values marked with an ‘*’ are statistically significant, p<0.0.5.
Animal Exposure: Adult mice (C57BL/6) were obtained from Jackson labs (Maine). They were divided into 2 groups viz., Con (C), drug treated (D). The drug, toelfenamic acid was dissolved in corn oil and administered at various concentrations from 10 mg/Kg to 100 mg/Kg in corn oil by oral gavage. Control mice were dosed with corn oil only. Treatment was given on alternate days for one month. At the end of the exposure period the animals were decapitated following exposure to CO2 and hypothermia and various brain regions were isolated and stored at −70° C. This protocol has been approved by the IACUC of the University of Rhode Island. […]
(In general: Immunoblotting shows a protein as a band on a membrane.)

In the next assay the test system is APP. In words: Oral tolfenamic acid in mice, Western blot analysis of APP in brain. The format is in vivo, mice (C57BL/6). To be noted: oral gavage 10 or 50 mg/Kg in corn oil on alternate days, ratio to housekeeping gene, both doses combined (FIG. 6B). Here is the method:
The Oral Administration of Tolfenamic acid to mice lowers SP1, APP, and Aβ levels in the brain (See FIG. 6). Mice were dosed on alternate days by oral gavage with 10 or 50 mg/Kg of tolfenamic acid in corn oil or vehicle alone. Tolfenamic acid (TFA) lowered APP levels by about 50% and Aβ by about 20%. […] FIG. 6A is a representative Western blot of SP1. FIG. 6B is a Western blot analysis of APP expressed as a ratio of a housekeeping gene, FIG. 6C is Aβ analysis by ELISA. Each bar represents the mean of data obtained from 6-9 animals. Data from both doses was combined after statistical analysis. Values marked with an ‘*’ are statistically significant, p<0.0.5. Animal Exposure: Adult mice (C57BL/6) were obtained from Jackson labs (Maine). They were divided into 2 groups viz., Con (C), drug treated (D). The drug, toelfenamic acid was dissolved in corn oil and administered at various concentrations from 10 mg/Kg to 100 mg/Kg in corn oil by oral gavage. Control mice were dosed with corn oil only. Treatment was given on alternate days for one month. At the end of the exposure period the animals were decapitated following exposure to CO2 and hypothermia and various brain regions were isolated and stored at −70° C. This protocol has been approved by the IACUC of the University of Rhode Island. […]

Data on one compound can be found in patent US20100069494A1, “LOWERING OF PROTEINS ASSOCIATED WITH ALZHEIMER'S DISEASE BY INTERRUPTING GENE TRANSCRIPTION WITH A SMALL MOLECULE” (BOARD OF GOVERNORS FOR HIGHER EDUCATION, STATE OF RHODE …, priority 2007, published 2010).

For `Cc1c(Cl)cccc1Nc1ccccc1C(=O)O` [Tolfenamic acid], in the assay on Aβ, the “lowering of Aβ levels” value is on record as “about 20%”. In the assay on Sp1, Sp3 and Sp4, the “degradation of Sp1, Sp3 and Sp4” value is “can induce proteasome-dependent degradation of Sp1, Sp3 and Sp4”. In addition, at SP1, the “SP1 levels in the brain” value is reported as “lowers”. Also, the “lowering of APP levels” value with APP is “about 50%”.
